In PubChem BioAssay AID2060890 (Molecular Pharmacology Branch, DTP, NCI, 2025):
Values joined by “and” are separate entries in the source; they are usually repeats but may differ in a detail not shown here. Equal entries are not always repeated. Values belong to the compound of their own block, whether it stands above or below them.

Tested on: LG0703-F948-PDC complex spheroid viability
Assay: Anticancer human tumor LG0703-F948-PDC patient-derived lung adenocarcinoma cell line growth inhibition [RAS]
Conditions: for viability, T/C: stronger effect = lower value
Procedure, shortened: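 Multi-cell-type spheroids: tumor cells plus HUVEC endothelial cells and mesenchymal stem cells. RAS-pathway inhibitors were combined with targeted agents, each dosed in half-log steps down from clinical Cmax, or from 10 microM when Cmax was unknown.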

[1] = curve of first compound, second compound 0.0316 µM
[2] = curve of first compound, second compound 0.1 µM
[3] = curve of first compound, second compound 0.316 µM
[4] = curve of first compound, second compound 1 µM
[5] = second compound 0.0316 µM, first compound 0.00316 µM
[6] = second compound 0.0316 µM, first compound 0.01 µM
[7] = second compound 0.0316 µM, first compound 0.0316 µM
[8] = second compound 0.0316 µM, first compound 0.1 µM
[9] = second compound 0.0316 µM, first compound 0.316 µM
[10] = second compound 0.0316 µM, first compound 1 µM
[11] = second compound 0.1 µM, first compound 0.00316 µM
[12] = second compound 0.1 µM, first compound 0.01 µM
[13] = second compound 0.1 µM, first compound 0.0316 µM
[14] = second compound 0.1 µM, first compound 0.1 µM
[15] = second compound 0.1 µM, first compound 0.316 µM
[16] = second compound 0.1 µM, first compound 1 µM
[17] = second compound 0.316 µM, first compound 0.00316 µM
[18] = second compound 0.316 µM, first compound 0.01 µM
[19] = second compound 0.316 µM, first compound 0.0316 µM
[20] = second compound 0.316 µM, first compound 0.1 µM
[21] = second compound 0.316 µM, first compound 0.316 µM
[22] = second compound 0.316 µM, first compound 1 µM
[23] = second compound 1 µM, first compound 0.00316 µM
[24] = second compound 1 µM, first compound 0.01 µM
[25] = second compound 1 µM, first compound 0.0316 µM
[26] = second compound 1 µM, first compound 0.1 µM
[27] = second compound 1 µM, first compound 0.316 µM
[28] = second compound 1 µM, first compound 1 µM
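Also: spheroids exposed to agents for 7 days.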
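For viability, T/C in this document: 100% = DMSO vehicle wells.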

IC50 (curve of first compound, second compound 0.000949 µM): > 1000 nM | IC50 (curve of first compound, second compound 0.003 µM): > 1000 nM | IC50 (curve of first compound, second compound 0.00949 µM): > 1000 nM | IC50 (curve of first compound, second compound 0.03 µM): > 1000 nM | IC50 (curve of first compound, second compound 0.0949 µM): > 1000 nM | IC50 (curve of first compound, second compound 0.3 µM): < 3.16 nM
SMILES: CCN1CCN(Cc2ccc(Nc3ncc(F)c(-c4cc(F)c5nc(C)n(C(C)C)c5c4)n3)nc2)CC1 + CCn1c(-c2cccnc2C(C)OC)c2c3cc(ccc31)N1CCOC(CC(NC(=O)C(C(C)C)N(C)C(=O)C3(F)CCN(C(=O)C#CC(C)(C)N(C)C)CC3)C(=O)N3CCCC(N3)C(=O)OCC(C)(C)C2)C1
viability, T/C (second compound 0.000949 µM, first compound 0.00316 µM): 103% | viability, T/C (second compound 0.000949 µM, first compound 0.01 µM): 111% | viability, T/C (second compound 0.000949 µM, first compound 0.0316 µM): 91.9% | viability, T/C (second compound 0.000949 µM, first compound 0.1 µM): 81.8% | viability, T/C (second compound 0.000949 µM, first compound 0.316 µM): 79.4% | viability, T/C (second compound 0.000949 µM, first compound 1 µM): 80.5% | viability, T/C (second compound 0.003 µM, first compound 0.00316 µM): 101% | viability, T/C (second compound 0.003 µM, first compound 0.01 µM): 97.3% | viability, T/C (second compound 0.003 µM, first compound 0.0316 µM): 81.1% | viability, T/C (second compound 0.003 µM, first compound 0.1 µM): 104% | viability, T/C (second compound 0.003 µM, first compound 0.316 µM): 111% | viability, T/C (second compound 0.003 µM, first compound 1 µM): 76.8% | viability, T/C (second compound 0.00949 µM, first compound 0.00316 µM): 101% | viability, T/C (second compound 0.00949 µM, first compound 0.01 µM): 97.2% | viability, T/C (second compound 0.00949 µM, first compound 0.0316 µM): 93% | viability, T/C (second compound 0.00949 µM, first compound 0.1 µM): 108% | viability, T/C (second compound 0.00949 µM, first compound 0.316 µM): 82.4% | viability, T/C (second compound 0.00949 µM, first compound 1 µM): 94.8% | viability, T/C (second compound 0.03 µM, first compound 0.00316 µM): 96.9% | viability, T/C (second compound 0.03 µM, first compound 0.01 µM): 98% | viability, T/C (second compound 0.03 µM, first compound 0.0316 µM): 95.5% | viability, T/C (second compound 0.03 µM, first compound 0.1 µM): 75.4% | viability, T/C (second compound 0.03 µM, first compound 0.316 µM): 81.2% | viability, T/C (second compound 0.03 µM, first compound 1 µM): 79% | viability, T/C (second compound 0.0949 µM, first compound 0.00316 µM): 90.7% | viability, T/C (second compound 0.0949 µM, first compound 0.01 µM): 86.8% | viability, T/C (second compound 0.0949 µM, first compound 0.0316 µM): 86.3% | viability, T/C (second compound 0.0949 µM, first compound 0.1 µM): 90.1% | viability, T/C (second compound 0.0949 µM, first compound 0.316 µM): 84.8% | viability, T/C (second compound 0.0949 µM, first compound 1 µM): 74.8% | viability, T/C (second compound 0.3 µM, first compound 0.00316 µM): 54.6% | viability, T/C (second compound 0.3 µM, first compound 0.01 µM): 40% | viability, T/C (second compound 0.3 µM, first compound 0.0316 µM): 56.4% | viability, T/C (second compound 0.3 µM, first compound 0.1 µM): 54.7% | viability, T/C (second compound 0.3 µM, first compound 0.316 µM): 59.8% | viability, T/C (second compound 0.3 µM, first compound 1 µM): 54.5%

IC50 (curve of compound): 6.31 nM [middle of 4 runs]
SMILES: CC(C)n1nc(-c2ccc3oc(N)nc3c2)c2c(N)ncnc21
viability, T/C (compound 0.000316 µM): 104% [middle of 4 runs] | viability, T/C (compound 0.00316 µM): 65.1% [middle of 4 runs] | viability, T/C (compound 0.01 µM): 40.8% [middle of 4 runs] | viability, T/C (compound 0.0316 µM): 23.2% [middle of 4 runs] | viability, T/C (compound 0.1 µM): 17% [middle of 4 runs]

IC50 (curve of compound): 1520 nM and 1080 nM and 1380 nM
SMILES: CCC(CC)c1cc(NC2CCC(N)C2)n2nccc2n1 (centres undefined)
viability, T/C (compound 0.0316 µM): 85.9% and 96.8% and 101% | viability, T/C (compound 0.1 µM): 94.6% and 93.7% and 90% | viability, T/C (compound 0.316 µM): 75.7% and 85.7% and 97% | viability, T/C (compound 1 µM): 76.4% and 54.7% and 68.8% | viability, T/C (compound 3.16 µM): 4.37% and 1.19% and 2.28% | viability, T/C (compound 10 µM): 0.41% and 0.27% and 0.38%

IC50 [1]: 6.33 nM | IC50 [2]: 8.21 nM | IC50 [3]: 6.43 nM | IC50 [4]: 5.01 nM | IC50 (curve of first compound, second compound 3.16 µM): 3.85 nM | IC50 (curve of first compound, second compound 10 µM): < 3.16 nM
SMILES: Nc1ccn(C2OC(CO)C(O)C2(F)F)c(=O)n1 (centres undefined) + C#Cc1c(F)ccc2cc(O)cc(-c3ncc4c(N5CC6CCC(C5)N6)nc(OCC56CCCN5CC(F)C6)nc4c3F)c12
viability, T/C [5]: 68.2% | viability, T/C [6]: 37.7% | viability, T/C [7]: 30.6% | viability, T/C [8]: 34.1% | viability, T/C [9]: 25.7% | viability, T/C [10]: 28.3% | viability, T/C [11]: 74.2% | viability, T/C [12]: 45% | viability, T/C [13]: 26.9% | viability, T/C [14]: 27.4% | viability, T/C [15]: 31.9% | viability, T/C [16]: 27% | viability, T/C [17]: 63.7% | viability, T/C [18]: 40.8% | viability, T/C [19]: 31.6% | viability, T/C [20]: 29% | viability, T/C [21]: 26.6% | viability, T/C [22]: 23.5% | viability, T/C [23]: 59% | viability, T/C [24]: 35.4% | viability, T/C [25]: 32.7% | viability, T/C [26]: 23.8% | viability, T/C [27]: 26.4% | viability, T/C [28]: 25.6% | viability, T/C (second compound 3.16 µM, first compound 0.00316 µM): 53% | viability, T/C (second compound 3.16 µM, first compound 0.01 µM): 34.7% | viability, T/C (second compound 3.16 µM, first compound 0.0316 µM): 34.2% | viability, T/C (second compound 3.16 µM, first compound 0.1 µM): 30.9% | viability, T/C (second compound 3.16 µM, first compound 0.316 µM): 32% | viability, T/C (second compound 3.16 µM, first compound 1 µM): 26.9% | viability, T/C (second compound 10 µM, first compound 0.00316 µM): 41.5% | viability, T/C (second compound 10 µM, first compound 0.01 µM): 29% | viability, T/C (second compound 10 µM, first compound 0.0316 µM): 32.5% | viability, T/C (second compound 10 µM, first compound 0.1 µM): 33.5% | viability, T/C (second compound 10 µM, first compound 0.316 µM): 34% | viability, T/C (second compound 10 µM, first compound 1 µM): 30.7%

IC50 (curve of first compound, second compound 0.00316 µM): 4.92 nM | IC50 (curve of first compound, second compound 0.01 µM): 4.93 nM | IC50 [1]: 5.48 nM | IC50 [2]: 5.32 nM | IC50 [3]: 5.96 nM | IC50 [4]: 5.85 nM
SMILES: Nc1ccn(C2OC(CO)C(O)C2(F)F)c(=O)n1 (centres undefined) + C=CC(=O)N1CCN(c2nc(OCC3CCCN3C)nc3c(F)c(-c4nc(N)cc(C)c4C(F)(F)F)c(Cl)cc23)C(C)C1
viability, T/C (second compound 0.00316 µM, first compound 0.00316 µM): 57.6% | viability, T/C (second compound 0.00316 µM, first compound 0.01 µM): 38.4% | viability, T/C (second compound 0.00316 µM, first compound 0.0316 µM): 27.3% | viability, T/C (second compound 0.00316 µM, first compound 0.1 µM): 28.2% | viability, T/C (second compound 0.00316 µM, first compound 0.316 µM): 29.4% | viability, T/C (second compound 0.00316 µM, first compound 1 µM): 6.7% | viability, T/C (second compound 0.01 µM, first compound 0.00316 µM): 58.7% | viability, T/C (second compound 0.01 µM, first compound 0.01 µM): 36.9% | viability, T/C (second compound 0.01 µM, first compound 0.0316 µM): 25.1% | viability, T/C (second compound 0.01 µM, first compound 0.1 µM): 25.1% | viability, T/C (second compound 0.01 µM, first compound 0.316 µM): 24.6% | viability, T/C (second compound 0.01 µM, first compound 1 µM): 21.7% | viability, T/C [5]: 61.6% | viability, T/C [6]: 36.7% | viability, T/C [7]: 30.1% | viability, T/C [8]: 24% | viability, T/C [9]: 24.1% | viability, T/C [10]: 23.3% | viability, T/C [11]: 62.1% | viability, T/C [12]: 35.4% | viability, T/C [13]: 26.8% | viability, T/C [14]: 26.3% | viability, T/C [15]: 26.8% | viability, T/C [16]: 22.7% | viability, T/C [17]: 74.2% | viability, T/C [18]: 30% | viability, T/C [19]: 29.9% | viability, T/C [20]: 25.3% | viability, T/C [21]: 27.1% | viability, T/C [22]: 29.1% | viability, T/C [23]: 63% | viability, T/C [24]: 38.3% | viability, T/C [25]: 29% | viability, T/C [26]: 30.1% | viability, T/C [27]: 25.2% | viability, T/C [28]: 21.4%

IC50 (compound alone, run of 09/09/2024): > 1000 nM | IC50 (curve of compound): > 1000 nM
SMILES: C=CC(=O)N1CCN(c2nc(OCC3CCCN3C)nc3c(F)c(-c4nc(N)cc(C)c4C(F)(F)F)c(Cl)cc23)C(C)C1 (centres undefined)
viability, T/C (compound 0.01 µM): 102% [middle of 11 runs] | viability, T/C (compound 0.1 µM): 106% [middle of 11 runs] | viability, T/C (compound 1 µM): 112% [middle of 11 runs]
